Experimental data: patent publication US6737383B1, “Herbicidal oxadiazolidines” (priority 1999, dated 2004)

Assays:
[1] = tested on: giant foxtail; assay: Test B pre/postemergence giant foxtail; type: in vivo, Setaria faberii
In short: (§1)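 Test chemicals in a non-phytotoxic solvent mixture with surfactant were sprayed preemergence onto planted seeds and postemergence onto plants 2 to 18 cm tall (1- to 4-leaf stage). After twelve to sixteen days in a greenhouse, injury was visually rated against untreated controls from 0 (no effect) to 10 (complete control).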

[2] = tested on: wild oat; assay: Test B pre/postemergence wild oat; type: in vivo, Avena fatua
In short: as §1

[3] = tested on: bedstraw; assay: Test B pre/postemergence bedstraw; type: in vivo, Galium aparine
In short: as §1

[4] = tested on: purple nutsedge; assay: Test B pre/postemergence purple nutsedge; type: in vivo, Cyperus rotundus
In short: as §1

[5] = tested on: blackgrass; assay: Test B pre/postemergence blackgrass; type: in vivo, Alopecurus myosuroides
In short: as §1

[6] = tested on: corn; assay: Test B pre/postemergence corn; type: in vivo, Zea mays
In short: as §1

[7] = tested on: surinam grass; assay: Test B pre/postemergence surinam grass; type: in vivo, Brachiaria decumbens
In short: as §1

[8] = tested on: duck salad; assay: Test B flood test duck salad; type: in vivo, Heteranthera limosa
In short: (§2)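 Each value is a visual injury score relative to controls, with 10 meaning complete control and 0 no effect. Evaluation took place twelve to sixteen days after the 2-leaf-stage plants were treated and kept in the greenhouse.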

[9] = tested on: morningglory; assay: Test B pre/postemergence morningglory; type: in vivo, Ipomoea hederacea
In short: as §1

[10] = tested on: soybean; assay: Test B pre/postemergence soybean; type: in vivo, Glycine max
In short: as §1

[11] = tested on: velvetleaf; assay: Test B pre/postemergence velvetleaf; type: in vivo, Abutilon theophrasti
In short: as §1

[12] = tested on: rape; assay: Test B pre/postemergence rape; type: in vivo, Brassica napus
In short: as §1

[13] = tested on: pigweed; assay: Test B pre/postemergence pigweed; type: in vivo, Amaranthus retroflexus
In short: as §1

[14] = tested on: wheat; assay: Test B pre/postemergence wheat; type: in vivo, Triticum aestivum
In short: as §1

[15] = tested on: crabgrass; assay: Test B pre/postemergence crabgrass; type: in vivo, Digitaria sanguinalis
In short: as §1

[16] = tested on: rice; assay: Test B flood test rice; type: in vivo, Oryza sativa
In short: as §2

[17] = Postemergence, Rate 125 g/ha, scale of 0 to 10 where 0 is no effect and 10 is complete control
[18] = Preemergence, Rate 62 g/ha, scale of 0 to 10 where 0 is no effect and 10 is complete control
[19] = Preemergence, Rate 125 g/ha, 0 is no effect, 10 is complete control
[20] = Preemergence, Rate 250 g/ha, scale 0 to 10, 0 is no effect, 10 is complete control
[21] = Preemergence, Rate 500 g/ha, scale 0 to 10 (0 no effect, 10 complete control)
[22] = Rate 62 g/ha, Postemergence, scale of 0 to 10 where 0 is no effect and 10 is complete control
[23] = Rate 250 g/ha, Postemergence, scale 0 to 10, 0 is no effect, 10 is complete control
[24] = Rate 500 g/ha, Postemergence, scale 0 to 10
[25] = Postemergence (flood test species), Rate 125 g/ha, scale of 0 to 10 where 0 is no effect and 10 is complete control
[26] = Rate 62 g/ha, Postemergence section, flood test species, scale of 0 to 10 where 0 is no effect and 10 is complete control
[27] = Rate 250 g/ha, Postemergence (flood test), scale 0 to 10, 0 is no effect, 10 is complete control
[28] = Rate 500 g/ha, listed under Postemergence (flood test species), scale 0 to 10

CC(C)N(C(=O)n1oc(=O)n(N(C)C)c1=O)c1ccc(F)cc1 [Compound 170]
5: Plant response rating, Velvetleaf [11, 23] | Velvetleaf plant response rating [11, 24] | Wheat plant response rating [14, 18]
9: Giant foxtail plant response rating [1, 18] | Wild oats plant response rating (0 to 10 scale) [2, 19] | Bedstraw plant response rating [3, 21] | Nutsedge plant response rating (0 to 10 scale) [4, 19] | Nutsedge plant response rating [4, 20] | Nutsedge plant response rating [4, 21] | Blackgrass plant response rating [5, 17] | Blackgrass plant response rating [5, 22] | Plant response rating, Blackgrass [5, 23] | Blackgrass plant response rating [5, 24] | Corn plant response rating [6, 21] | B. signalgrass plant response rating (0 to 10 scale) [7, 19] | Plant response rating, B. signalgrass [7, 23] | Soybean plant response rating [10, 21] | Crabgrass plant response rating [15, 17] | Plant response rating, Crabgrass [15, 23] | Crabgrass plant response rating [15, 24]
2: Bedstraw plant response rating [3, 24] | Nutsedge plant response rating [4, 17] | Nutsedge plant response rating [4, 22] | Corn plant response rating (0 to 10 scale) [6, 19] | B. signalgrass plant response rating [7, 18] | Morningglory plant response rating [9, 24] | Soybean plant response rating [10, 22] | Rape plant response rating [12, 18]
1: Morningglory plant response rating [9, 17] | Plant response rating, Morningglory [9, 23] | Soybean plant response rating (0 to 10 scale) [10, 19]
6: Wild oats plant response rating [2, 24] | Bedstraw plant response rating [3, 20] | Corn plant response rating [6, 20] | B. signalgrass plant response rating [7, 17] | Morningglory plant response rating [9, 20] | Plant response rating, Redroot pigweed [13, 23] | Redroot pigweed plant response rating [13, 24] | Wheat plant response rating (0 to 10 scale) [14, 19] | Plant response rating, Wheat [14, 23]
4: Giant foxtail plant response rating [1, 22] | Soybean plant response rating [10, 20] | Plant response rating, Soybean [10, 23]
7: Giant foxtail plant response rating [1, 17] | Wild oats plant response rating [2, 18] | Plant response rating, Nutsedge [4, 23] | Nutsedge plant response rating [4, 24] | Soybean plant response rating [10, 24] | Velvetleaf plant response rating (0 to 10 scale) [11, 19] | Wheat plant response rating [14, 24]
0: Bedstraw plant response rating [3, 17] | Bedstraw plant response rating [3, 18] | Bedstraw plant response rating (0 to 10 scale) [3, 19] | Bedstraw plant response rating [3, 22] | Plant response rating, Bedstraw [3, 23] | Nutsedge plant response rating [4, 18] | Corn plant response rating [6, 17] | Corn plant response rating [6, 18] | Corn plant response rating [6, 22] | Plant response rating, Corn [6, 23] | Corn plant response rating [6, 24] | Ducksalad plant response rating [8, 25] | Ducksalad plant response rating [8, 26] | Plant response rating, Ducksalad [8, 27] | Ducksalad plant response rating [8, 28] | Morningglory plant response rating [9, 18] | Morningglory plant response rating [9, 22] | Soybean plant response rating [10, 18] | Rape plant response rating [12, 17] | Rape plant response rating [12, 22] | Plant response rating, Rape [12, 23] | Redroot pigweed plant response rating [13, 17] | Redroot pigweed plant response rating [13, 22] | Rice plant response rating [16, 25] | Rice plant response rating [16, 26] | Plant response rating, Rice [16, 27] | Rice plant response rating [16, 28]
8: Plant response rating, Giant foxtail [1, 23] | Giant foxtail plant response rating [1, 24] | Rape plant response rating (0 to 10 scale) [12, 19] | Wheat plant response rating [14, 20] | Wheat plant response rating [14, 21] | Crabgrass plant response rating [15, 18] | Crabgrass plant response rating [15, 22]
10: Giant foxtail plant response rating (0 to 10 scale) [1, 19] | Giant foxtail plant response rating [1, 20] | Giant foxtail plant response rating [1, 21] | Wild oats plant response rating [2, 20] | Wild oats plant response rating [2, 21] | Blackgrass plant response rating [5, 18] | Blackgrass plant response rating (0 to 10 scale) [5, 19] | Blackgrass plant response rating [5, 20] | Blackgrass plant response rating [5, 21] | B. signalgrass plant response rating [7, 20] | B. signalgrass plant response rating [7, 21] | B. signalgrass plant response rating ([7]; Rate 500 g/ha, Postemergence, scale 0 to 10, 0 no effect, 10 complete control) | Morningglory plant response rating [9, 21] | Velvetleaf plant response rating [11, 20] | Velvetleaf plant response rating [11, 21] | Rape plant response rating [12, 20] | Rape plant response rating [12, 21] | Redroot pigweed plant response rating [13, 18] | Redroot pigweed plant response rating (0 to 10 scale) [13, 19] | Redroot pigweed plant response rating [13, 20] | Redroot pigweed plant response rating [13, 21] | Crabgrass plant response rating (0 to 10 scale) [15, 19] | Crabgrass plant response rating [15, 20] | Crabgrass plant response rating [15, 21]
3: Plant response rating, Wild oats [2, 23] | B. signalgrass plant response rating [7, 22] | Morningglory plant response rating (0 to 10 scale) [9, 19] | Soybean plant response rating [10, 17] | Velvetleaf plant response rating [11, 18] | Rape plant response rating [12, 24]
